Source: patent publication US20070264202A1, “Pharmaceutical Composition Comprising an Isomer of Betamimetic Agent and an Anti-Cholinergic Agent” (CIPLA LIMITED, priority 2004, published 2007)
Each block holds one compound with its values, some of them ahead of it.

What was measured:
beta-adrenoreceptor = details: in-vitro studies, salbutamol enantiomers; cited from earlier work
[1] = cited from earlier work
[2] = compared with the racemate; cited from earlier work
[3] = Flow, suspension and dispersion characteristics; assay type: physicochemical; details: compared with the racemate
[4] = test system: subjects with stable mild to moderate bronchial asthma; test: Randomized double-blind, single-dose, crossover study of bronchodilator responses via metered dose inhaler; assay type: in vivo; details: monitored over 6 hours
Description: A study was conducted to compare bronchodilator responses to levosalbutamol sulphate and racemic salbutamol sulphate administered via metered dose inhaler in a randomized double-blind, single-dose, crossover study. In this study single doses of 100 mcg levosalbutamol sulphate and 200 mcg racemic salbutamol sulphate were administered via MDI in subjects with stable mild to moderate bronchial asthma, who were then monitored over a period of 6 hours. […] Thus, it is clear from the study that a reduced dose of levosalbutamol sulphate is required compared to racemic salbutamol sulphate to have the same therapeutic effect.

Compound: CC(C)(C)NC[C@@H](O)c1ccc(O)c(CO)c1 (single isomer, unassigned) [S-isomer]
affinity for the beta-adrenoreceptor (beta-adrenoreceptor): markedly less affinity

Compound: COc1ccc(C[C@@H](C)NC[C@H](O)c2ccc(O)c(NC=O)c2)cc1 [R,R formoterol]
activity relative to S,S-isomer or any other available isomer [1]: 1000 times

flow property [3]: more free flowing than the racemate
Compound: CC(C)(C)NC[C@H](O)c1ccc(O)c(CO)c1 [levosalbutamol]
bronchodilatory effects [2]: greater bronchodilatory effects than the racemate | suspension and dispersion characteristics [3]: better suspension and dispersion characteristics

Compound: levosalbutamol sulphate
bronchodilator response ([4]; single dose 100 mcg via MDI, compared with 200 mcg racemic salbutamol sulphate): equivalent time-dependant bronchodilator responses

Compound: salbutamol sulphate [racemic salbutamol sulphate]
bronchodilator response ([4]; single dose 200 mcg via MDI, compared with 100 mcg levosalbutamol sulphate): equivalent time-dependant bronchodilator responses
